What is called IC50 is the concentration needed to halve the response being measured. A lower IC50 goes with greater potency.

This note sets out measurements from ChEMBL document CHEMBL3879899, “Gastrin releasing peptide compounds” (2011).

The target in data set [1] is T1, Gastrin-releasing peptide receptor (Homo sapiens, UniProt P30550). Briefly: Displacement of [125I]-BBN from GRPR in human PC3 cells after 1 hr by compuGamma counting or microplate scintillation counting method. The format is cell-based, PC-3.
Target sequence in this assay (P30550 whole entry): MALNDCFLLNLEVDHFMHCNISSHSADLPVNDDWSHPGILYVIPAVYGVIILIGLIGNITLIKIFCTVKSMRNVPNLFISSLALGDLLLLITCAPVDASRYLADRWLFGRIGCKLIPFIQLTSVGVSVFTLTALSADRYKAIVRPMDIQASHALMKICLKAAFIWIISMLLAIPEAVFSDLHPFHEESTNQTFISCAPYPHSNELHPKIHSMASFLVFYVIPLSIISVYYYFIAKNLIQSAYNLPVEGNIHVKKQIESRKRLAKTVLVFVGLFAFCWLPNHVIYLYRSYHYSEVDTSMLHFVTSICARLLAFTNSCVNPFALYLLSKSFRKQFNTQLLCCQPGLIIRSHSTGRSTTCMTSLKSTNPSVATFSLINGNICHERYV
Another data set has as its target T2, Neuromedin-B receptor (Rattus norvegicus, UniProt P24053).
T2 sequence (P24053 whole entry): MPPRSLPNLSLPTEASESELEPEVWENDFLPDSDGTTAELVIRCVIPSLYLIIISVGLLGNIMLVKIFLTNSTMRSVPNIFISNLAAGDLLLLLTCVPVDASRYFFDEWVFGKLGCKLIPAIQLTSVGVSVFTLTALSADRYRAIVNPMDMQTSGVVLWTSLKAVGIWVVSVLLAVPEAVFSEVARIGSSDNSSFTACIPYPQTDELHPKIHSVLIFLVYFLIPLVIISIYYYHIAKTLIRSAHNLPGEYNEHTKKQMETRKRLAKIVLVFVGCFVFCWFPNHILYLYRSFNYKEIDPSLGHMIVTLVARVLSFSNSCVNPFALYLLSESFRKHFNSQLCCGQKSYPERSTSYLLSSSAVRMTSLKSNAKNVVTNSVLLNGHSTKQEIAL
Briefly: Displacement of [125I]-NMB from NMB receptor in rat C6 cells. The data set is classed as cell-based. In general terms: Loss of bound radioactivity is the signal in a displacement assay; it reports binding, not function.

For data set [2], the target named is T1, Gastrin-releasing peptide receptor. Briefly: Binding affinity to GRP receptor in human colon smooth muscle after 1 hr by autoradiography.
Target sequence in this assay (P30550 whole entry, looked up): as the sequence (P30550 whole entry) above
The nature of data set [3]: Drug internalization in human PC3 cells after 40 mins by gamma counting method. The following applies: pc-3, 40 min. The data set is classed as ADME, cell-based.
Data set [4] can be described thus: Drug efflux in human PC3 cells after 2 hrs by gamma counting method. The following applies: pc-3, 2 h. The format is ADME, cell-based.

The structures appear in SMILES notation. Active and inactive are the calls of the source. The calls are words filed in the database; no cut-off is given here. Where a SMILES comes first, the peptide text is derived from it. The star is where a group is joined. Me2Gly = CN(C)CC(=O)*; Acm = CC(=O)NC*

`CSCC[C@H](NC(=O)[C@H](CC(C)C)NC(=O)[C@H](Cc1cnc[nH]1)NC(=O)CNC(=O)[C@@H](NC(=O)[C@H](C)NC(=O)[C@H](Cc1c[nH]c2ccccc12)NC(=O)[C@H](CCC(N)=O)NC(=O)CN1CCN(C(=O)CN2CCN(CC(=O)O)CCN(CC(=O)O)CCN(CC(=O)O)CC2)CC1)C(C)C)C(N)=O` registered an IC50 in data set [1] of over 50 nM.

Take `CSCC[C@H](NC(=O)[C@H](CC(C)C)NC(=O)[C@H](Cc1cnc[nH]1)NC(=O)CNC(=O)[C@@H](NC(=O)[C@H](C)NC(=O)[C@H](Cc1c[nH]c2ccccc12)NC(=O)[C@H](CCC(N)=O)NC(=O)[C@H](CCC(=O)O)NC(=O)[C@H](CCCCN)NC(=O)CNC(=O)[C@H](CSCNC(C)=O)NC(=O)[C@H](CO)NC(=O)CN(C)C)C(C)C)C(N)=O`: at Neuromedin-B receptor, the 50% inhibitory concentration (IC50) came to 60 nM.

`CSCC[C@H](NC(=O)[C@H](CC(C)C)NC(=O)[C@H](Cc1c[nH]cn1)NC(=O)CNC(=O)[C@@H](NC(=O)[C@H](C)NC(=O)[C@H](Cc1c[nH]c2ccccc12)NC(=O)[C@H](CCC(N)=O)NC(=O)CN1CCCC[C@H](NC(=O)CN2CCN(CC(=O)O)CCN(CC(=O)O)CCN(CC(=O)O)CC2)C1=O)C(C)C)C(N)=O`: the IC50 in data set [1] (pc-3) was found to be 50 nM.

On to `CSCC[C@H](NC(=O)[C@H](CC(C)C)NC(=O)[C@H](Cc1cnc[nH]1)NC(=O)CNC(=O)[C@@H](NC(=O)[C@H](C)NC(=O)[C@H](Cc1c[nH]c2ccccc12)NC(=O)[C@H](CCC(N)=O)NC(=O)[C@@H]1CSC2CC[C@H](NC(=O)CN3CCN(CC(=O)O)CCN(CC(=O)O)CCN(CC(=O)O)CC3)C(=O)N21)C(C)C)C(N)=O` (stereo partly specified), for which the IC50 in data set [1] was over 50 nM.

For `CSCC[C@H](NC(=O)[C@H](CC(C)C)NC(=O)[C@H](Cc1cnc[nH]1)NC(=O)CNC(=O)[C@@H](NC(=O)[C@H](C)NC(=O)[C@H](Cc1c[nH]c2ccccc12)NC(=O)[C@H](CCC(N)=O)NC(=O)CN1CN(c2ccccc2)C2(CCN(C(=O)CN3CCN(CC(=O)O)CCN(CC(=O)O)CCN(CC(=O)O)CC3)CC2)C1=O)C(C)C)C(N)=O`, the 50% inhibitory concentration (IC50) in data set [1] is over 50 nM.

`CCCCC(NC(=O)[C@H](Cc1ccccc1)NC(=O)[C@H](Cc1cnc[nH]1)NC(=O)CCNC(=O)[C@@H](NC(=O)[C@H](C)NC(=O)[C@H](Cc1c[nH]c2ccccc12)NC(=O)[C@H](CCC(N)=O)NC(=O)C(N)Cc1ccc(O)cc1)C(C)C)C(N)=O` (stereo in doubt): the outcome in data set [2] was Active.

On to `CSCC[C@H](NC(=O)[C@H](CC(C)C)NC(=O)[C@H](Cc1cnc[nH]1)NC(=O)CNC(=O)[C@@H](NC(=O)[C@H](C)NC(=O)[C@H](Cc1c[nH]c2ccccc12)NC(=O)[C@H](CCC(N)=O)NC(=O)[C@H](CC(N)=O)NC(=O)CNC(=O)[C@H](CC(C)C)NC(=O)[C@H](CCCN=C(N)N)NC(=O)[C@H](CCC(N)=O)NC(=O)[C@@H]1CCC(=O)N1)C(C)C)C(N)=O` [BOMBESIN], for which the Drug uptake in data set [3] was determined as 59%. Also, the Drug transport in data set [4] was determined as 35%.

On to `CSCC[C@H](NC(=O)[C@H](Cc1ccccc1)NC(=O)[C@H](Cc1c[nH]cn1)NC(=O)CNC(=O)[C@@H](NC(=O)[C@H](C)NC(=O)[C@H](Cc1c[nH]c2ccccc12)NC(=O)[C@H](CC(C)C)NC(=O)c1ccc(NC(=O)CNC(=O)CN2CCN(CC(=O)O)CCN(CC(=O)O)CCN(CC(=O)O)CC2)cc1)C(C)O)C(N)=O` (stereo partly specified), for which, at Neuromedin-B receptor, the concentration for half-maximal inhibition (IC50) lay in the range of 0.07 to 0.8 nM.

As to `CSCC[C@H](NC(=O)[C@H](CC(C)C)NC(=O)[C@H](Cc1cnc[nH]1)NC(=O)CNC(=O)[C@@H](NC(=O)[C@H](C)NC(=O)[C@H](Cc1c[nH]c2ccccc12)NC(=O)[C@H](CCC(N)=O)NC(=O)[C@@H]1Cc2cccc3c2N1C(=O)[C@@H](NC(=O)CN1CCN(CC(=O)O)CCN(CC(=O)O)CCN(CC(=O)O)CC1)CC3)C(C)C)C(N)=O`, in data set [1], the IC50 was over 50 nM.

Turning to `CSCC[C@H](NC(=O)[C@H](CC(C)C)NC(=O)[C@H](Cc1cnc[nH]1)NC(=O)CNC(=O)[C@@H](NC(=O)[C@H](C)NC(=O)[C@H](Cc1c[nH]c2ccccc12)NC(=O)[C@H](CCC(N)=O)NC(=O)[C@H](CC(N)=O)NC(=O)CNC(=O)[C@H](Cc1ccc(O)cc1)NC(=O)[C@H](CCCNC(=N)N)NC(=O)[C@H](CCC(N)=O)NC(=O)[C@H](CCC(=O)O)NC(=O)[C@H]1CCCN1)C(C)C)C(N)=O`, the IC50 in data set [1] amounted to 2.2 nM; on Neuromedin-B receptor, 3.36 nM.

The molecule `CSCC[C@H](NC(=O)[C@H](CC(C)C)NC(=O)[C@H](Cc1cnc[nH]1)NC(=O)CNC(=O)[C@@H](NC(=O)[C@H](C)NC(=O)[C@H](Cc1c[nH]c2ccccc12)NC(=O)[C@H](CCC(N)=O)NC(=O)[C@H]1CC[C@H](CNC(=O)[C@H]2CC[C@H](CNC(=O)CN3CCN(CC(=O)O)CCN(CC(=O)O)CCN(CC(=O)O)CC3)CC2)CC1)C(C)C)C(N)=O` registered an IC50 on Neuromedin-B receptor of 0.3 nM.

`CSCC[C@H](NC(=O)[C@H](CC(C)C)NC(=O)[C@H](Cc1cnc[nH]1)NC(=O)CNC(=O)[C@@H](NC(=O)[C@H](C)NC(=O)[C@H](Cc1c[nH]c2ccccc12)NC(=O)[C@H](CCC(N)=O)NC(=O)CN1CCN(CC(=O)O)CCN(CC(=O)O)CCN(CC(=O)O)CC1)C(C)C)C(N)=O`: the IC50 on Neuromedin-B receptor was over 250 nM.

`CSCC[C@H](NC(=O)[C@H](CC(C)C)NC(=O)[C@H](Cc1cnc[nH]1)NC(=O)CNC(=O)[C@@H](NC(=O)[C@H](C)NC(=O)[C@@H](N)Cc1c[nH]c2ccccc12)C(C)C)C(N)=O`: the IC50 (in data set [1]; on Neuromedin-B receptor) was over 800 nM each time.

Molecule `CSCC[C@H](NC(=O)[C@H](CC(C)C)NC(=O)[C@H](Cc1cnc[nH]1)NC(=O)CNC(=O)[C@@H](NC(=O)[C@H](C)NC(=O)[C@H](Cc1c[nH]c2ccccc12)NC(=O)[C@H](CCC(N)=O)NC(=O)[C@H](CCCCN)NC(=O)[C@H](CO)NC(=O)CNC(=O)[C@H](CSCNC(C)=O)NC(=O)[C@H](CO)NC(=O)CN(C)C)C(C)C)C(N)=O` (Me2Gly-SC(Acm)GSKQWAVGHLM-NH2) came in with an IC50 in data set [1] of 2 nM.

`CSCC[C@H](NC(=O)[C@H](CC(C)C)NC(=O)[C@H](Cc1cnc[nH]1)NC(=O)CNC(=O)[C@@H](NC(=O)[C@H](C)NC(=O)[C@H](Cc1c[nH]c2ccccc12)NC(=O)[C@H](CCC(N)=O)NC(=O)[C@H](CCCNC(=N)N)NC(=O)[C@H](CCCCNC(=O)COCCOCCOCC(=O)N[C@H]1CC[C@]2(C)[C@H]3C[C@H](O)[C@]4(C)[C@@H]([C@H](C)CCC(=O)O)CC[C@H]4[C@@H]3CC[C@]2(C)C1)NC(=O)CNC(=O)CN1CCN(CC(=O)O)CCN(CC(=O)O)CCN(CC(=O)O)CC1)C(C)C)C(N)=O`: the IC50 in data set [1] is over 50 nM.

Molecule `CSCC[C@H](NC(=O)[C@H](CC(C)C)NC(=O)[C@H](Cc1cnc[nH]1)NC(=O)CNC(=O)[C@@H](NC(=O)[C@H](C)NC(=O)[C@H](Cc1c[nH]c2ccccc12)NC(=O)[C@H](CCC(N)=O)NC(=O)[C@H](CCCNC(=N)N)NC(=O)[C@H](CCCCNC(=O)CNC(=O)CN1CCN(CC(=O)O)CCN(CC(=O)O)CCN(CC(=O)O)CC1)NC(=O)COCCOCCOCC(=O)N[C@H]1CC[C@]2(C)[C@H]3C[C@H](O)[C@]4(C)[C@@H]([C@H](C)CCC(=O)O)CC[C@H]4[C@@H]3CC[C@]2(C)C1)C(C)C)C(N)=O` gave a half-inhibitory concentration (IC50) in data set [1] of over 50 nM.

Take `CSCC[C@H](NC(=O)[C@H](CC(C)C)NC(=O)[C@H](Cc1cnc[nH]1)NC(=O)CNC(=O)[C@@H](NC(=O)[C@H](C)NC(=O)[C@H](Cc1c[nH]c2ccccc12)NC(=O)[C@H](CCC(N)=O)NC(=O)Cn1cnc2ccc(N3CCN(C(=O)CN4CCN(CC(=O)O)CCN(CC(=O)O)CCN(CC(=O)O)CC4)CC3)cc2c1=O)C(C)C)C(N)=O`: in data set [1], the concentration for half-maximal inhibition (IC50) is over 50 nM.

For the molecule `CSCC[C@H](NC(=O)[C@H](CC(C)C)NC(=O)[C@H](Cc1cnc[nH]1)NC(=O)CNC(=O)[C@@H](NC(=O)[C@H](C)NC(=O)[C@H](Cc1c[nH]c2ccccc12)NC(=O)[C@H](CCC(N)=O)NC(=O)C[C@@H]1NC(=O)C2C[C@H](NC(=O)CN3CCN(CC(=O)O)CCN(CC(=O)O)CCN(CC(=O)O)CC3)CN2C1=O)C(C)C)C(N)=O` (stereo partly specified), the IC50 in data set [1] is over 50 nM.
